The results in this text go back to ChEMBL document CHEMBL4043217, “A prodrug design for improved oral absorption and reduced hepatic interaction” (Bioorg Med Chem, 2017).

Active and inactive are the calls of the source. The rule behind the calls is not given here.

In data set [1] the test system is Rattus norvegicus. The data set can be described thus: Estrogenic effect in ovariectomized adult female Wistar rat assessed as uterine weight level at 10 ug, po dosed from day 1 to 3 and measured on day 4 relative to untreated control. In kind it is functional.
Another data set addresses Carbonic anhydrase 2 (Homo sapiens, UniProt P00918).
A short description of data set [2]: Prodrug conversion in human plasma assessed as esterase-mediated estradiol release by measuring saponification level after 10 mins by ELISA method. Type of data set: ADME. Conditions: isolated protein.
In data set [3] the test system is Rattus norvegicus. The data set can be described thus: Estrogenic effect in ovariectomized adult female Wistar rat assessed as uterine weight level at 1 ug, po dosed from day 1 to 3 and measured on day 4 relative to untreated control. In kind it is functional.
Data set [4] is described as follows: Clearance in Sprague-Dawley rat blood at 1 mg/kg, iv. In kind it is ADME, organism-based.
A short description of data set [5]: Volume of distribution in Sprague-Dawley rat blood at 1 mg/kg, iv. Type of data set: ADME, organism-based.
The nature of data set [6]: Half life in Sprague-Dawley rat blood at 5 mg/kg, po. In kind it is ADME, organism-based.
The target in another data set is T1, Estrogen receptor (Homo sapiens, UniProt P03372).
T1 sequence (P03372 whole entry): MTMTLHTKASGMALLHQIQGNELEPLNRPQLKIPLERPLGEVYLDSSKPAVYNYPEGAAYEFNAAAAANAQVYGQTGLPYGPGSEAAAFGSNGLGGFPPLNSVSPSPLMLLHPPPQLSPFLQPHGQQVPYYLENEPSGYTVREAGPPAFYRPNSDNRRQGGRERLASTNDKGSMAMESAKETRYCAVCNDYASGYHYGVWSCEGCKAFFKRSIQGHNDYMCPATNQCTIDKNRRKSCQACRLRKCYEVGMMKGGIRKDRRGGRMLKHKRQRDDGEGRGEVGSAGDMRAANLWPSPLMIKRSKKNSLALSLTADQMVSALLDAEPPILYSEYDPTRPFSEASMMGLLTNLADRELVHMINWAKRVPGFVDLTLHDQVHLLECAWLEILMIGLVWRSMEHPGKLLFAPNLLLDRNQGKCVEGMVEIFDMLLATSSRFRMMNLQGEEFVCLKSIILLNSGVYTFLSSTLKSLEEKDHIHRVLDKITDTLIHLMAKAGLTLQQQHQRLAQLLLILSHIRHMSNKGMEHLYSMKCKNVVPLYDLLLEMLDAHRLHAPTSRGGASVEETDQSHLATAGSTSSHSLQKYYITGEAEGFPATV
The data set can be described thus: Binding affinity to ER (unknown origin) expressed in UAS-bla GripTite 293 cells by Select screen competitive binding assay. In kind it is cell-based.

Data set [7] can be described thus: Clearance in Sprague-Dawley rat plasma at 1 mg/kg, iv. Type of data set: ADME, organism-based.
Data set [8] can be described thus: Volume of distribution in Sprague-Dawley rat plasma at 1 mg/kg, iv. Type of data set: ADME, organism-based.
Data set [9] can be described thus: Half life in Sprague-Dawley rat plasma at 5 mg/kg, po. Type of data set: ADME, organism-based.
The nature of data set [10]: Oral bioavailability life in Sprague-Dawley rat plasma at 5 mg/kg. In kind it is ADME, organism-based.
A short description of data set [11]: Oral bioavailability life in Sprague-Dawley rat blood at 5 mg/kg. In kind it is ADME, organism-based.
Data set [12] deals with Rattus norvegicus. The data set can be described thus: Estrogenic effect in ovariectomized adult female Wistar rat assessed as uterine weight level at 3 ug, po dosed from day 1 to 3 and measured on day 4 relative to untreated control. In kind it is functional.
Data set [13] concerns Rattus norvegicus. The data set can be described thus: AUC (0 to 3 hrs) in rat at 3 mg, po. Type of data set: ADME. On the set-up: time < 3 hr, dose 3 mg, route oral. The conditions noted are these: in vivo.
In data set [14] the test system is Rattus norvegicus. The data set can be described thus: Increase in testosterone level in orally dosed male rat serum relative to testosterone-propionate. In kind it is functional, organism-based.

Description for Carbonic anhydrase 2: Inhibition of human CA2 catalytic activity pre-incubated for 15 mins followed by 4-NPA substrate addition and measured every 12 to 15 secs for 5 mins by spectrophotometry

As to `C[C@]12CC[C@@H]3c4ccc(O)cc4CC[C@H]3[C@@H]1CC[C@@H]2OC(=O)[C@@H]1CCCN1C(=O)c1cccc(-c2ccc(S(N)(=O)=O)cc2)c1`, the Activity in the data set on Rattus norvegicus [1] is 153%. At Carbonic anhydrase 2, this compound yielded an IC50 of 0.12 µM.
The corresponding values for `C[C@]12CC[C@@H]3c4ccc(O)cc4CC[C@H]3[C@@H]1CC[C@@H]2OC(=O)[C@@H]1CCCN1C(=O)c1coc(S(N)(=O)=O)c1` are 313% and 0.007 µM.
The corresponding values for `C[C@]12CC[C@@H]3c4ccc(O)cc4CC[C@H]3[C@@H]1CC[C@@H]2OC(=O)[C@@H]1CCCN1C(=O)c1ccc(S(N)(=O)=O)nc1` are 259% and 0.25 µM.
In the same order, the values of `C[C@]12CC[C@@H]3c4ccc(O)cc4CC[C@H]3[C@@H]1CC[C@@H]2OC(=O)[C@@H]1CCCN1C(=O)Cc1ccc(S(N)(=O)=O)cc1` are 267% and 0.5 µM.
`CC(C)[C@H](NC(=O)c1ccc(S(N)(=O)=O)cc1)C(=O)O[C@H]1CC[C@H]2[C@@H]3CCc4cc(O)ccc4[C@H]3CC[C@]12C`: the Drug metabolism in data set [2] stood at 89%. For the same compound, the Activity stood at 105% in the data set with Rattus norvegicus [3] and 267% with Rattus norvegicus [1]. Moreover, half-maximal inhibition at Carbonic anhydrase 2 (IC50) required 0.202 µM.
With `C[C@]12CC[C@@H]3c4ccc(O)cc4CC[C@H]3[C@@H]1CC[C@@H]2OC(=O)[C@@H]1CCCN1C(=O)c1ccc(S(N)(=O)=O)cc1`, the values for the clearance in data set [4] and in data set [7] were 0.232 L/h/kg and 3.77 L/h/kg, respectively. The Vd in data set [5] was 0.24 L/kg; in data set [8], 5.68 L/kg. The half-life was 4.9 h in data set [6] and 4.58 h in data set [9]. In the data set on Rattus norvegicus [3], the Activity was determined as 244%. Besides, the EC50 on Estrogen receptor came out at 0.432 µM. Further, the bioavailability in data set [10] came out at 102%; in [11] it was 122%.
On to `C[C@]12CC[C@@H]3c4ccc(O)cc4CC[C@H]3[C@@H]1CC[C@@H]2OC(=O)[C@@H]1CCCN1C(=O)c1ccc(S(N)(=O)=O)cn1`, for which, in the data set with Rattus norvegicus [1], the Activity was determined as 268%. The compound also registered an IC50 against Carbonic anhydrase 2 of 5 µM.
In the same order, the values of `C[C@]12CC[C@@H]3c4ccc(O)cc4CC[C@H]3[C@@H]1CC[C@@H]2OC(=O)[C@@H]1CCCN1Cc1ccc(S(N)(=O)=O)cc1` are 272% and 0.129 µM.
With `C[C@]12CC[C@@H]3c4ccc(O)cc4CC[C@H]3[C@@H]1CC[C@@H]2OC(=O)[C@@H]1CCCN1C(=O)c1ccc(S(N)(=O)=O)o1`, the Activity with Rattus norvegicus [1] is reported as 318%. The same compound showed a concentration for half-maximal inhibition (IC50) on Carbonic anhydrase 2 of 0.25 µM.
With `C[C@]12CC[C@@H]3c4ccc(O)cc4CC[C@H]3[C@@H]1CC[C@@H]2OC(=O)CNC(=O)c1ccc(S(N)(=O)=O)cc1`, the Drug metabolism in data set [2] amounted to 87%. This compound also yielded a concentration for half-maximal inhibition (IC50) against Carbonic anhydrase 2 of 0.065 µM.
Turning to `C[C@]12CC[C@@H]3c4ccc(O)cc4CC[C@H]3[C@@H]1CC[C@@H]2OC(=O)[C@@H]1CCCN1C(=O)c1cccc(-c2cccc(S(N)(=O)=O)c2)c1`, in the data set on Rattus norvegicus [1], the Activity worked out at 216%. The compound also returned an IC50 against Carbonic anhydrase 2 of 10 µM.
`C[C@@H](C(=O)O[C@H]1CC[C@H]2[C@@H]3CCc4cc(O)ccc4[C@H]3CC[C@]12C)N(C)C(=O)c1ccc(S(N)(=O)=O)cc1`: the Drug metabolism in data set [2] was 84%. The Activity stood at 145% in the data set with Rattus norvegicus [3] and 289% in the data set with Rattus norvegicus [1]. Also, at Carbonic anhydrase 2, the IC50 was 0.325 µM.
As for `Cc1cc(C(=O)N2CCC[C@H]2C(=O)O[C@H]2CC[C@H]3[C@@H]4CCc5cc(O)ccc5[C@H]4CC[C@]23C)ccc1S(N)(=O)=O`, the Activity in the data set on Rattus norvegicus [1] is 258%. This compound gave a concentration for half-maximal inhibition (IC50) against Carbonic anhydrase 2 of 0.21 µM.
On to `CC(C)(NC(=O)c1ccc(S(N)(=O)=O)cc1)C(=O)O[C@H]1CC[C@H]2[C@@H]3CCc4cc(O)ccc4[C@H]3CC[C@]12C`, for which the Drug metabolism in data set [2] amounted to 97%. The Activity in the data set with Rattus norvegicus [3] turned out to be 107%; in the data set on Rattus norvegicus [1] it was 97%. Also, the 50% inhibitory concentration (IC50) on Carbonic anhydrase 2 was determined as 0.232 µM.
Consider `C[C@]12CC[C@@H]3c4ccc(O)cc4CC[C@H]3[C@@H]1CC[C@@H]2OC(=O)[C@H](Cc1ccccc1)NC(=O)c1ccc(S(N)(=O)=O)cc1`, for which the Drug metabolism in data set [2] was found to be 75%. Moreover, the Activity in the data set with Rattus norvegicus [3] is on record as 95%; with Rattus norvegicus [1], 117%. Also, the IC50 at Carbonic anhydrase 2 was determined as 0.1 µM.
For `C[C@H](NC(=O)c1ccc(S(N)(=O)=O)cc1)C(=O)O[C@H]1CC[C@H]2[C@@H]3CCc4cc(O)ccc4[C@H]3CC[C@]12C`, the Drug metabolism in data set [2] is 70%. In the data set with Rattus norvegicus [12], the Activity is 163%. For the same compound, on Carbonic anhydrase 2, the IC50 is 0.25 µM.
For `C[C@]12CC[C@H]3[C@@H](CCC4=CC(=O)CC[C@@]43C)[C@@H]1CC[C@@H]2OC(=O)[C@@H]1CCCN1C(=O)c1ccc(S(N)(=O)=O)cn1`, the AUC in the data set with Rattus norvegicus [13] was found to be 330 ng/mL. The outcome in the data set with Rattus norvegicus [14] was Active.
`C[C@]12CC[C@@H]3c4ccc(O)cc4CC[C@H]3[C@@H]1CC[C@@H]2OC(=O)[C@@H]1CCCN1C(=O)c1cccc(S(N)(=O)=O)c1`: the 50% inhibitory concentration (IC50) against Carbonic anhydrase 2 is 0.3 µM.
For the compound `C[C@]12CC[C@@H]3c4ccc(O)cc4CC[C@H]3[C@@H]1CC[C@@H]2OC(=O)[C@@H]1CCCN1C(=O)c1ccc(-c2ccc(S(N)(=O)=O)cc2)cc1`, the Activity with Rattus norvegicus [1] was 309%. Besides, the IC50 against Carbonic anhydrase 2 came out at 0.29 µM.
The corresponding values for `C[C@]12CC[C@@H]3c4ccc(O)cc4CC[C@H]3[C@@H]1CC[C@@H]2OC(=O)[C@@H]1CCCN1S(N)(=O)=O` are 268% and 10 µM.
In the same order, the values of `C[C@]12CC[C@@H]3c4ccc(O)cc4CC[C@H]3[C@@H]1CC[C@@H]2OC(=O)[C@@H]1CCCN1c1ccc(S(N)(=O)=O)cc1` are 92% and 0.198 µM.
